Experimental data taken from patent EP0435222A2, “Aminopyridinylmethanols and aminomethylpyridinamines and related compounds, a process for their preparation and their use as medicaments” (HOECHST-ROUSSEL PHARMACEUTICALS INCORPORATED, priority 1989, dated 1991).
Counter-ions that a name gives are not always drawn. Like-named read-outs stand apart in the source and are kept apart here.

Key:
[1] = test system: Scopolamine Induced Memory Deficit; experiment: Dark Avoidance Assay (reversal of scopolamine-induced memory deficit); assay type: in vivo, mice; settings: for responders at 0.3 mg/kg: Dose 0.30 mg/kg of body weight; for responders at 0.16 mg/kg: Dose 0.16 mg/kg of body weight
Description: In this assay mice are tested for their ability to remember an unpleasant stimulus for a period of 24 hours. A mouse is placed in a chamber that contains a dark compartment: a strong incandescent light drives it to the dark compartment, where an electric shock is administered through metal plates on the floor. The animal is removed from the testing apparatus and tested again, 24 hours later, for the ability to remember the electric shock. If scopolamine, an anticholinergic that is known to cause memory impairment, is administered before an animal's initial exposure to the test chamber, the animal re-enters the dark compartment shortly after being placed in the test chamber 24 hours later. This effect of scopolamine is blocked by an active test compound, resulting in a greater interval before re-entry into the dark compartment. The results for an active compound are expressed as the percent of a group of animals in which the effect of scopolamine is blocked, as manifested by an increased interval between being placed in the test chamber and re-entering the dark compartment.

[2] = test system: naja naja (snake venom) phospholipase A₂-induced paw edema; experiment: Phospholipase A₂-induced Paw Edema (PIPE); assay type: in vivo, male Wistar rats; settings: for PIPE* (0.1 M): difference in edema vs. control, 0.1 M test compound injected with PLA₂ (3 units/paw), subplantar, rat hindpaw, two hours post administration
Description: The ability of compounds to prevent naja naja (snake venom) phospholipase A₂-induced paw edema in male Wistar rats (100-125 g) was measured. PLA₂ (3 units/paw) alone or with 0.1 M of the test compound was injected in the subplantar region of the rat left hindpaw. Immediately subsequent to the injection and at two hours post administration the paw was immersed in a mercury bath, and paw displacement was measured on a recorder via a transducer (Standard: hydrocortisone ED₅₀=0.46 M). See Giessler, A.J. et al., Agents and Actions, Vol. 10, Trends in Inflammation Research (1981), p. 195.

porcine pancreatic PLA₂ = molecular target: T1, porcine pancreatic PLA₂ (Sus scrofa, UniProt P00592); experiment: In Vitro Phospholipase A₂ Assay (PLA₂); assay type: biochemical
T1 construct: porcine pancreatic PLA₂ (3.2 units); from tissue; host or cells: porcine pancreas
Description: The ability of a compound to modulate PLA₂ activity (cleavage of ¹⁴C-dipalmitoyl phosphotidylcholine at the 2-position to ¹⁴C-palmitic acid) was quantitated in this assay. The reaction mixture contained Tris buffer (25mM), pH 8.0, calcium chloride (2.0 mM), bovine serum albumin (0.5 mg), dipalmitoyl phosphotidylcholine (8x10⁻⁵M), (¹⁴C-palmitoyl)dipalmitoyl phosphotidylcholine (6x10³ cpm), porcine pancreatic PLA₂ (3.2 units) and the test compound. The reaction was run at 37°C in a shaking incubator. The reaction was quenched and an internal standard was added in order to determine sample recovery. […] See Feyen, J.H.M., et al., Journal of Chromatography 259 (1983), pp. 338-340.

[3] = test system: ear edema induced by topical application of TPA (phorbol 12-myristate acetate); experiment: TPA-Induced Ear Edema (TPAEE); assay type: in vivo, Female Swiss Webster mice; settings: for TPAEE (10 µg): 10 µg/ear topical, TPA 10µg/ear, ear punch weight after five hours
Description: The purpose of this assay was to determine the ability of a topically-applied compound to prevent ear edema induced by topical application of TPA (phorbol 12-myristate acetate). Female Swiss Webster mice topically received TPA (10µg/ear) on the right ear and vehicle on the left ear. The test compound (10 µg/ear) was applied to both ears. After five hours, the animals were sacrificed and an ear punch (4 mm) was taken from each ear. The difference in right and left ear punch weights for each animal was determined to assess activity (Standard: hydrocortisone ED₅₀=47 µg/ear). See Young, J.M. et al., J. Invest. Dermatol., 80 (1983), pp. 48-52.

[4] = test system: 2-phenyl-1,4-benzoquinone-induced writhing; experiment: Inhibition of Phenylquinone-Induced Writhing in Mice (PQW); assay type: in vivo, male CD-1 Charles River mice
Description: A 0.125% concentration of phenyl-p-benzoquinone in a 5% aqueous solution of ethyl alcohol is administered to mice (10 mL/kg, ip). This produces a characteristic "writhe" which is defined as an inward rotation of one or more feet with twisting and turning of the trunk, drawing in of the abdominal wall, lordosis, and arching of the back. A total of 28 male CD-1 Charles River mice (18-30 g) are employed for a time-response. Animals receive food and water ad libitum during their stay in the animal quarters prior to testing. Compounds are tested at 20 mg/kg, sc and are prepared with distilled water, and if insoluble one drop of Tween-80, a surfactant is added. Compounds are administered in a dosage volume of 10 mL/kg.
Twenty mice (five per group) are administered the test compound at various pretreat time (e.g., 15,30,45, and 60 min) prior to phenylquinone injection. Control animals (two per group) receive an equal volume of vehicle. After the administration of phenylquinone, the mice are placed separately into 1-L beakers, and 5 min are allowed to elapse. The mice are then observed for a period of 10 min, and the number of writhes is recorded for each animal. The formula for computing percent inhibition is [drawing 20]
The time period with the maximum percent of inhibition is considered the peak time.

[5] = test system: mouse ear edema induced by topical application of arachidonic acid; experiment: Arachidonic Acid-Induced Ear Edema (AAEE); assay type: in vivo, Female Swiss Webster mice
Description: The purpose of this assay was to determine the ability of a topically-applied compound to prevent mouse ear edema induced by topical application of arachidonic acid. Female Swiss Webster mice topically received vehicle or test compound (1.0 mg/ear) on both ears (10µl on outer and inner ears). After 30 minutes, the right ear of all groups received arachidonic acid (4 mg/ear) and the left ear received vehicle alone. After an additional 1 hour, the mice were sacrificed and an ear punch (4 mm) was taken from each ear. The difference in right and left ear punch weights for each animal was determined to assess activity (Standard: indomethacin ED₅₀ = 1.5 mg/ear). See Young, J.M. et al., J. Invest. Dermatol., 80, (1983), pp 48-52.

[6] = 0.01 M test compound, porcine pancreatic PLA₂, 37°C, pH 8.0, change vs. control, read-out: PLA2* (0.01 M)
[7] = Mus musculus, sc, 24 h, s.c, read-out: % of Animals with Scopolamine Induced Memory Deficit Reversal

T1 sequence (P00592 23-146): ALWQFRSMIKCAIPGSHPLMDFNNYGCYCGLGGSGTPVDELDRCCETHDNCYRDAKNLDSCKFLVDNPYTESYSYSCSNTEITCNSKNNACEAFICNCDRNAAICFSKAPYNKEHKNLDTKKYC

## Nc1ccncc1C(O)c1ccccc1F (stereo not drawn) [α-(2-Fluorophenyl)-4-amino-3-pyridinylmethanol hydrochloride]
[1]; Mus musculus, sc, 24 h, Dose 1.0 mg/kg of body weight, s.c, read-out: % of Animals with Scopolamine Induced Memory Deficit Reversal
  responders at 1 mg/kg: 40%
[2]
  PIPE* (0.1 M): -56%

## Nc1ccncc1C(=NO)c1ccccc1F [(4-Amino-3-pyridinyl)-(2-fluorophenyl)-methanone oxime]
Porcine pancreatic PLA₂; [6]
  inhibition at 10000 µM: 32%
[3]
  TPAEE (10 µg): -56%

## C[C@]12CCC(=O)C=C1CC[C@@H]1[C@@H]2[C@@H](O)C[C@@]2(C)[C@H]1CC[C@]2(O)C(=O)CO [hydrocortisone, reference compound]
[2]; standard of the PIPE assay
  ED₅₀: 0.46 M
[3]; standard of the TPAEE assay, topical
  ED₅₀: 47 µg/ear

## CCCCNCc1cnccc1N.Cl.Cl [3-(Butylamino)methyl-4-pyridinamine dihydrochloride]
[1]; [7]
  responders at 0.3 mg/kg: 27%
[4]; Dose 20 mg/kg, s.c.
  PQW (% inhibition of writhing): 62%

## CC(C)(C)C(=O)Nc1ccncc1C(O)C1CCCCC1 (stereo not drawn) [α-Cyclohexyl-4-(2,2-dimethylpropionamido)-3-pyridinylmethanol]
[1]; [7]
  responders at 0.16 mg/kg: 33%
[5]; 1.0 mg/ear topical, 30 minutes before arachidonic acid (4 mg/ear), ear punch weight after 1 hour
  AAEE (1 mg): -52%
[3]
  TPAEE (10 µg): -55%

## Nc1ccncc1C(N)c1ccccc1 (stereo not drawn) [(4-Amino-3-pyridinyl)benzenemethanamine dihydrochloride]
[1]; [7]
  responders at 0.3 mg/kg: 27%
[2]
  PIPE* (0.1 M): -66%

## CC(O)c1cnccc1NC(=O)C(C)(C)C (stereo not drawn) [α-Methyl-4-(2,2-dimethylpropionamido)-3-pyridinylmethanol]
[4]; Dose 20 mg/kg, s.c.
  PQW (% inhibition of writhing): 89%

## Cl.Cl.Nc1ccncc1CNCc1ccccc1 [3-[(Phenylmethylamino)methyl]-4-pyridinamine dihydrochloride]
Porcine pancreatic PLA₂; pH 8, read-out: PLA2* (0.01 M)
  inhibition at 10000 µM: 79%
[4]; Dose 20 mg/kg, s.c.
  PQW (% inhibition of writhing): 40%
[2]
  PIPE* (0.1 M): -51%

## Nc1ccncc1C(O)c1ccccc1 (stereo not drawn) [α.Phenyl-4-amino-3-pyridinylmethanol hydrochloride]
Porcine pancreatic PLA₂; [6]
  inhibition at 10000 µM: 87%
[1]; Mus musculus, sc, 24 h, Dose 0.63 mg/kg of body weight, s.c, read-out: % of Animals with Scopolamine Induced Memory Deficit Reversal
  responders at 0.63 mg/kg: 27%

## CC(NCc1ccccc1)c1cnccc1NC(=O)C(C)(C)C (stereo not drawn) [N-[3-[1-(Phenylmethylamino)ethyl]-4-pyridinyl]-2,2-dimethylpropanamide dihydrochloride]
Porcine pancreatic PLA₂; pH 8, read-out: PLA2* (0.01 M)
  inhibition at 10000 µM: 74%

## Cl.Cl.Nc1ccncc1C(N)C1CCCCC1 (stereo not drawn) [(4-Amino-3-pyridinyl)cyclohexylmethanamine dihydrochloride]
Porcine pancreatic PLA₂; pH 8, read-out: PLA2* (0.01 M)
  inhibition at 10000 µM: 72%
[2]
  PIPE* (0.1 M): -68%

## CC(NCc1ccccc1)c1cnccc1N (stereo not drawn) [4-Amino-α-methyl-N-(phenylmethyl)-3-pyridinemethanamine]
[2]
  PIPE* (0.1 M): -44%

## Nc1ccncc1C(O)C1CCCCC1 (stereo not drawn) [α-Cyclohexyl-4-amino-3-pyridinylmethanol hydrochloride]
[1]; [7]
  responders at 0.16 mg/kg: 50%

## COc1ccc2c(c1)c(CC(=O)O)c(C)n2C(=O)c1ccc(Cl)cc1 [indomethacin, reference compound]
[5]; standard of the AAEE assay, topical
  ED₅₀: 1.5 mg/ear

## CNC(=O)Oc1ccc2c(c1)[C@]1(C)CCN(C)[C@@H]1N2C [Physostigmine, reference compound]
[1]; mouse, in vivo, 0.31 mg/kg
  % of Animals with Scopolamine Induced Memory Deficit Reversal: 20%

## Nc1ccncc1C(=NO)C1CCCCC1 [(4-Amino-3-pyridinyl)cyclohexylmethanone oxime hydrochloride]
Porcine pancreatic PLA₂; pH 8, read-out: PLA2* (0.01 M)
  inhibition at 10000 µM: 99%

## CC(O)c1cnccc1N (stereo not drawn) [α-Methyl-4-amino-3-pyridinylmethanol hydrochloride]
[1]; Mus musculus, sc, 24 h, Dose 1.25 mg/kg of body weight, s.c, read-out: % of Animals with Scopolamine Induced Memory Deficit Reversal
  responders at 1.25 mg/kg: 33%

## CCC(=O)O[C@](Cc1ccccc1)(c1ccccc1)[C@H](C)CN(C)C [Propoxyphene, reference compound]
[4]; Dose 3.9 mg/kg, s.c. (reference compound)
  PQW (% inhibition of writhing): 50%

## Cl.Nc1ccncc1C(=O)C1CCCCC1 [(4-Amino-3-pyridinyl)cyclohexylmethanone hydrochloride]
Porcine pancreatic PLA₂; pH 8, read-out: PLA2* (0.01 M)
  inhibition at 10000 µM: 82%
[3]
  TPAEE (10 µg): -53%

## CC(C)(C)C(=O)Nc1ccncc1C(O)c1ccccc1 (stereo not drawn) [α.Phenyl-4-(2,2-dimethylpropionamido)-3-pyridinylmethanol]
[1]; Mus musculus, sc, 24 h, Dose 0.31 mg/kg of body weight, s.c, read-out: % of Animals with Scopolamine Induced Memory Deficit Reversal
  responders at 0.31 mg/kg: 40%
[4]; Dose 20 mg/kg, s.c.
  PQW (% inhibition of writhing): 38%
